# Data as given in patent publication US8168596B2, “Use of cycloartane compounds for treating arthritis” (NuLiv Holding Inc., priority 2008, dated 2012).
# What was measured:
# MMP1 = experiment: Western blotting of MMP1 protein expression induced by IL-1β, PMA or TNF-α in SW1353 cells (Example 3); assay type: cell-based, human; settings: AS4 0.01, 0.1 or 1 μM; PMA 100 ng/mL, IL-1β 10 ng/mL, TNF-α 10 ng/mL, 24 h
# Method: Western blotting analysis was carried out based on the following procedure. Cells were washed and lysed in 0.2 mL of lysis buffer (1% NP-40, 50 mM Tris-HCl, pH 7.4, 180 mM NaCl, 1 mM EDTA, 1 mM PMSF, 1 mM NaF, 10 mM Na3VO4) for 30 min at 4° C. After centrifugation at 17500 g for 15 min, the supernatants of cell lysate were collected. Protein concentrations of the samples were measured using the bicinchoninic acid (BCA) protein assay kit according to the manufacturer's protocol (Pierce, Rockford, Ill., USA). Equal amounts of protein samples of concentrated conditioned medium (100 μg) or cell lysate supernatants (50 μg) were mixed with an appropriate volume of 4×SDS sampling buffer and separated on a 8% SDS-PAGE gel. The protein bands separated on the SDS-PAGE gel were blotted onto a polyvinylidene fluoride (PVDF) membrane. The blotted PVDF membrane was washed twice and blocked in freshly prepared Tris-buffered saline (TBS) containing 0.1% Tween-20 and 7% skim milk (TBST) for 2 hours at room temperature. The PVDF membrane was then incubated with a primary antibody against MMP1 protein (Santa Cruz Biotechnology, Santa Cruz, Calif.) for 18 hours at 4° C. Horseradish peroxidase-conjugated anti-goat antibody was used as the secondary antibody. Signals were visualized by an enhanced chemiluminescence kit (Clonetech, Palo Alto, Calif., USA) followed by exposure to X-ray films. […]
# [1] = system: ERK1 (P44) and ERK2 (P42); experiment: Western blotting of ERK1/ERK2 in PMA-treated SW1353 cells; assay type: cell-based, human; settings: PMA 100 ng/mL 2 h, then 1 μM AS4 24 h; value without AS4 2.7
# MMP-13 = experiment: Western blot of MMP-13 in pre-treated human chondrocytes (HCHs); assay type: cell-based; settings: IL-1β-pre-treated HCH culture medium; compounds 0.1 μM, 48 h
smiles,measurement,setting,value
"CC(C)(O)[C@@H]1CC[C@](C)([C@H]2[C@@H](O)C[C@@]3(C)[C@@H]4C[C@H](O[C@@H]5O[C@H](CO)[C@@H](O)[C@H](O)[C@H]5O)[C@H]5C(C)(C)[C@@H](O[C@@H]6OC[C@@H](O)[C@H](O)[C@H]6O)CC[C@@]56C[C@@]46CC[C@]23C)O1 [AS4, Astragaloside IV]",level of expression of MMP1 protein with different inducers,MMP1,inhibited
same,value of expression of ERK1 (P44) and ERK2 (P42),[1],1.7
same,"MMP-13, Western blot, relative to Ctrl 1.00",MMP-13,0.55
